In patent publication US20230302159A1, “COMPOUNDS AND COMPOSITIONS FOR TUMOR DETECTION AND SURGICAL GUIDANCE” (Cornell University, priority 2020, published 2023):
Read-outs that look alike come from different tables or passages of the source. Marks after values point to notes of the source that are not given here.

Legend:
[1] = Fluorescence properties of the CypH dyes at pH 5.0 and pH 7.5 (Table 2); format: physicochemical; conditions: for Ratio Intensity pH 5.0/7.5: fluorescence intensity pH 5.0 over pH 7.5
From the text: The excitation and emission maxima of CypH-1 are 760 and 777 nm, respectively. The signal intensity ratio of pH 5 over pH 7.5 was about 10. The meso-bridge ring size, lipophilicity and electro-density of CypH-1 was modified to provide better optical property. […] The best compound from this group was CypH-5 whose fluorescence ratio of pH 5.0/pH 7.5 was increased to 22. Based on this initial structure and property relationship, the second round of 10 new analogs were designed using CypH-5 as the core, focusing on modifying the electron density on the aniline ring and the indolinium ring. Various alkyl groups, such as methyl, ethyl, propyl, isopropyl and their combinations, were applied to these two positions.
The CypH analogs with other longer alkyl chains had much lower background fluorescence. […] Among them, CypH-11, which has a methyl isopropyl aniline and an isopropyl group on the indolinium ring, gave a 112-fold enhancement in fluorescence signal. CypH-11 has absorbance and emission maxima at 766 nm and 785 nm, respectively (FIG. 4) and was selected as the lead compound (vide infra).

[2] = Solubility of the CypH dyes (Table 1); format: physicochemical
Description: (§1) Characterization: All new CypH dyes were characterized by proton NMR and mass spectrometry to confirm identity. NMR data was consistent with the structure and mass spectrometry results gave the expected mass of the dye±0.5 amu. An HPLC method was developed (see below) and used to assess dye purity. […] Retention times on the column generally correlated with lipophilicity of the dyes with water soluble dyes containing sulfate groups eluting out earlier (@10.6 min for CypH-3, 6, 9) than CypH-1 (@11.9 min) and the more lipophilic dyes later. Optical properties of the dyes, acid dissociation constants and solubilities were also determined. Synthetic intermediates were also characterized by proton NMR.

[3] = Optical properties of the CypH dyes: absorbance maximum and extinction coefficient in EtOH (Table 1); format: physicochemical; conditions: for Ex Coeff (M^−1cm^−1) @ Abs Max: at absorbance maximum
Description: as §1

[4] = in water; cited from earlier work
[5] = organic solvent or mixture, in EtOH, read-out: Solubility

| SMILES | Ratio Intensity pH 5.0/7.5 [1] | FL Intensity pH 5.0 [1] | FL Max (nm) pH 5.0 [1] [nm] | FL Intensity pH 7.5 [1] | FL Max (nm) pH 7.5 [1] [nm] | Solubility [2, 5] [µM] | Ex Coeff (M^−1cm^−1) @ Abs Max [3] | Abs. Max (nm) in EtOH [3] | Solubility ([2]; in EtOH) [mM in] | Solubility ([2]; in H2O) [mM in] | quantum yield (Φ) of standard compound [4] [%] | Ratio Intensity pH 5.0/7.5 ([1]; listed as 5) |
| --- | --- | --- | --- | --- | --- | --- | --- | --- | --- | --- | --- | --- |
| CCN(C)c1ccc(OC2=C(/C=C/C3=[N+](CC)c4ccccc4C3(C)C)CCC/C2=C\C=C2\N(CC)c3ccccc3C2(C)C)cc1 [CypH-7] | 27.8 | 5681 | 788 | 204 | 786 | > 1000 | 179,500 M^−1cm^−1 | 764 nm | – | – | – | – |
| CC(C)CN1/C(=C/C=C2\CCCC(/C=C/C3=[N+](CC(C)C)c4ccccc4C3(C)C)=C2Oc2ccc(N(C)C)cc2)C(C)(C)c2ccccc21.[I-] [CypH-19] | 68.2 | 3137 | 794 | 46 | 784 | – | 240,900 M^−1cm^−1 | 774 nm | >1 | – | – | – |
| CCN1/C(=C/C=C2\CCCC(/C=C/C3=[N+](CC)c4ccccc4C3(C)C)=C2Oc2ccc(N(C)C(C)C)cc2)C(C)(C)c2ccccc21 [CypH-10] | 13.0 | 5380 | 788 | 414 | 781 | > 1000 | 175,400 M^−1cm^−1 | 765 nm | – | – | – | – |
| CCN(C)c1ccc(OC2=C(/C=C/C3=[N+](C)c4ccccc4C3(C)C)CC/C2=C\C=C2\N(C)c3ccccc3C2(C)C)cc1.[Cl-] [CypH-8] | 41.4 | 2816 | 801 | 68 | 791 | – | 72,700 M^−1cm^−1 | 777 nm | >1 | – | – | – |
| CCN1/C(=C/C=C2\CCCC(/C=C/C3=[N+](CC)c4ccccc4C3(C)C)=C2Oc2ccc(N(C)C)cc2)C(C)(C)c2ccccc21 [CypH-2] | 30.6 | 4254 | 787 | 139 | 786 | > 1000 | 139,100 M^−1cm^−1 | 764 nm | – | – | – | – |
| CCCN1/C(=C/C=C2\CCCC(/C=C/C3=[N+](CCC)c4ccccc4C3(C)C)=C2Oc2ccc(N(C)C(C)C)cc2)C(C)(C)c2ccccc21.[I-] [CypH-16] | 26.6 | 4847 | 791 | 182 | 783 | – | 248,000 M^−1cm^−1 | 771 nm | >1 | – | – | – |
| CCN(C)c1ccc(OC2=C(/C=C/C3=[N+](CCCS(=O)(=O)[O-])c4ccccc4C3(C)C)CCC/C2=C\C=C2\N(CCCS(=O)(=O)[O-])c3ccccc3C2(C)C)cc1.[Na+] [CypH-6] | 10.8 | 4359 | 789 | 405 | 791 | – | 150,400 M^−1cm^−1 | 768# nm | – | >1 | – | – |
| CCN(CC)c1ccc(OC2=C(/C=C/C3=[N+](C)c4ccccc4C3(C)C)CCC/C2=C\C=C2\N(C)c3ccccc3C2(C)C)cc1.[Cl-] [CypH-14] | 5.9 | 5627 | 786 | 958 | 784 | – | 215,800 M^−1cm^−1 | 767 nm | >1 | – | – | – |
| CC1(C)C(/C=C/C=C/C=C/C=C2\N(CCCCS(=O)(=O)O)c3ccc4ccccc4c3C2(C)C)=[N+](CCCCS(=O)(=O)[O-])c2ccc3ccccc3c21 [indocyanine green] | – | – | – | – | – | – | – | – | – | – | 1.2 | – |
| CCN(C)c1ccc(OC2=C(/C=C/C3=[N+](C)c4ccccc4C3(C)C)CCC/C2=C\C=C2\N(C)c3ccccc3C2(C)C)cc1 [CypH-5] | 22 | 5089 | 786 | 227 | 787 | > 1000 | 134,000 M^−1cm^−1 | 762 nm | – | – | – | 22.4 |
| CN(C)c1ccc(OC2=C(/C=C/C3=[N+](C)c4ccccc4C3(C)C)CC/C2=C\C=C2\N(C)c3ccccc3C2(C)C)cc1.[Cl-] [CypH-4] | 23.2 | 1924 | 801 | 83 | 790 | – | 58,000 M^−1cm^−1 | 775 nm | >1 | – | – | – |
| CC(C)N(C)c1ccc(OC2=C(/C=C/C3=[N+](C)c4ccccc4C3(C)C)CCC/C2=C\C=C2\N(C)c3ccccc3C2(C)C)cc1 [CypH-12] | 8.7 | 4285 | 787 | 493 | 784 | > 1000 | 255,600 M^−1cm^−1 | 767 nm | – | – | – | – |
| CC(C)N(C)c1ccc(OC2=C(/C=C/C3=[N+](CCCS(=O)(=O)[O-])c4ccccc4C3(C)C)CCC/C2=C\C=C2\N(CCCS(=O)(=O)[O-])c3ccccc3C2(C)C)cc1.[Na+] [CypH-9] | 5.3 | 5125 | 793 | 972 | 789 | – | 176,300 M^−1cm^−1 | 769# nm | – | >1 | – | – |
| CC(C)CN1/C(=C/C=C2\CCCC(/C=C/C3=[N+](CC(C)C)c4ccccc4C3(C)C)=C2Oc2ccc(N(C)C(C)C)cc2)C(C)(C)c2ccccc21.[I-] [CypH-13] | 35.0 | 4204 | 796 | 120 | 790 | – | 218,100 M^−1cm^−1 | 774 nm | >1 | – | – | – |
| CCN(C)c1ccc(OC2=C(/C=C/C3=[N+](CC(C)C)c4ccccc4C3(C)C)CCC/C2=C\C=C2\N(CC(C)C)c3ccccc3C2(C)C)cc1.[I-] [CypH-20] | 35.1 | 3646 | 794 | 104 | 789 | – | 218,600 M^−1cm^−1 | 774 nm | >1 | – | – | – |
| CCCN1/C(=C/C=C2\CCCC(/C=C/C3=[N+](CCC)c4ccccc4C3(C)C)=C2Oc2ccc(N(C)C)cc2)C(C)(C)c2ccccc21.[I-] [CypH-15] | 53.2 | 4313 | 791 | 81 | 786 | – | 251,500 M^−1cm^−1 | 772 nm | >1 | – | – | – |
| CCN(C)c1ccc(OC2=C(/C=C/C3=[N+](C(C)C)c4ccccc4C3(C)C)CCC/C2=C\C=C2\N(C(C)C)c3ccccc3C2(C)C)cc1 [CypH-17] | 57.3 | 4468 | 791 | 78 | 782 | > 1000 | 269,100 M^−1cm^−1 | 770 nm | – | – | – | – |
| CCCN1/C(=C/C=C2\CCCC(/C=C/C3=[N+](CCC)c4ccccc4C3(C)C)=C2Oc2ccc(N(C)CC)cc2)C(C)(C)c2ccccc21.[I-] [CypH-18] | 38.2 | 4553 | 792 | 117 | 782 | – | 257,300 M^−1cm^−1 | 772 nm | >1 | – | – | – |
